The source of these data is PubChem BioAssay (NCI).

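Protocol summary: plate cells (96-well), add compound at 5 concentrations, incubate 48 h, interpolate endpoints linearly. Definition used: TGI = concentration required for complete inhibition of growth.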 Where a SMILES comes first, the peptide text is derived from it.

Assay in all cases: growth of human tumour cells (NCI), 48 h
Test [1] has as its system K-562 leukemia.
Test [2] relates to HT29 colon.
Test [3] concerns UACC-62 melanoma.
In test [4] the test system is COLO 205 colon.
Test [5] concerns CAKI-1 renal.
Test [6] relates to MDA-MB-435.
Test [7] relates to HOP-92 NSCLC.
Test [8] relates to MDA-N.
For test [9], the system named is MDA-MB-231 breast.
Test [10] deals with NCI-H522 lung.
The test system of test [11] is NCI-H23 lung.
Test [12] deals with SF-268 CNS.
In test [13] the test system is BT-549 breast.
Test [14] concerns TK-10 renal.
For test [15], the system named is SW-620 colon.
Test [16] relates to SK-MEL-5 melanoma.
Test [17] relates to SK-MEL-28 melanoma.
Test [18] has as its system PC-3 prostate.
Test [19] concerns ACHN renal.

`C/C=C/C(C#N)(Cc1ccccc1)OP1(=O)OC(c2ccccc2)C(C)N1C` (stereo unspecified): the TGI in [1], in test [2], in test [3], in [4], in test [5] and in [6] was more than 100 µM throughout. The TGI in [7], in test [8], in [9], in test [10], in [11] and in [12] was more than 100 µM each time. The TGI in [13], in [14], in test [15], in test [16], in [17] and in [18] was more than 100 µM each time. For the same compound, the TGI in test [19] was more than 100 µM.
`COc1ccc2c(c1)CC[C@@H]1[C@@H]2CC[C@]2(C)C(=O)/C(=C/c3ccncc3)C[C@@H]12`: the TGI in test [1] is more than 100 µM; in test [2], more than 100 µM; in test [3], more than 100 µM; in test [4] it was more than 100 µM; in test [5], more than 100 µM; in test [6] it was 92.4 µM. In addition, the TGI in [7] was 77.9 µM; in test [8], more than 100 µM; in test [9] it was more than 100 µM; in [10], 92.1 µM; in test [11], more than 100 µM; in [12], more than 100 µM. The TGI in [13] was more than 100 µM; in [14] it was more than 100 µM; in [15] it was 86 µM; in test [16] it was 41.6 µM; in test [17] it was 90.6 µM; in [18] it was more than 100 µM. The TGI in test [19] was more than 100 µM.
With `Nc1nc(Cl)cc(NCC2(CO)CCC(O)C2)n1` (stereo unspecified), the TGI in [1], in test [2], in [3], in test [4], in [5] and in [6] was more than 100 µM in each case. In addition, the TGI in test [7], in test [8], in test [9], in test [10], in test [11] and in [12] was more than 100 µM throughout. Also, the TGI in test [13], in test [14], in test [15], in test [16], in test [17] and in [18] was more than 100 µM throughout. Further, the TGI in test [19] is more than 100 µM.
Consider `CC(=O)NC(CS)C(=O)NC(CO)C(=O)NC(CO)C(=O)NC(Cc1c[nH]c2ccccc12)C(=O)N1CCCC1C(=O)NC(CO)C(=O)NC(Cc1c[nH]c2ccccc12)C(=O)NC(Cc1c[nH]cn1)C(=O)NC(CO)C(=O)NC(Cc1c[nH]c2ccccc12)C(=O)NCC(=O)NCC(=O)NC(CC(=O)O)C(=O)NC(CCC(N)=O)C(=O)NC(CCCCN)C(=O)NC(Cc1ccccc1)C(=O)NC(CCCNC(=N)N)C(=O)NC(CCCCN)C(N)=O` (stereo unspecified) (Ac-CSSWPSWHSWGGDQKFRK-NH2; configuration not given here), for which the TGI in test [1], in test [2], in test [3], in test [4], in test [5] and in test [6] was more than 25 µM in each case. Besides, the TGI in test [7], in test [8], in test [9], in test [10], in [11] and in test [12] was more than 25 µM in each case. The TGI in test [13], in test [14], in [15], in [16], in [17] and in test [18] was more than 25 µM throughout. In [19], this compound gave a TGI of more than 25 µM.
As to `NNc1ccccc1Cl`, the TGI in test [1], in test [2], in [3], in test [4], in [5] and in test [6] was more than 100 µM throughout. Also, the TGI in test [7], in test [8], in test [9], in test [10], in [11] and in test [12] was more than 100 µM throughout. Moreover, the TGI in test [13], in [14], in [15], in test [16], in [17] and in [18] was more than 100 µM each time. For the same compound, the TGI in test [19] was more than 100 µM.
As for `CC(C)=CCC[C@](C)(O[C@@H]1O[C@H](CO)[C@@H](O)[C@H](O)[C@H]1O)[C@H]1CC[C@]2(C)[C@@H]1[C@H](O)C[C@@H]1[C@@]3(C)CC[C@H](O)C(C)(C)[C@@H]3[C@@H](O[C@@H]3O[C@H](CO)[C@@H](O)[C@H](O)[C@H]3O)C[C@]12C`, the TGI in [1], in test [2], in test [3], in test [4], in test [5] and in test [6] was more than 100 µM in each case. Also, the TGI in [7], in test [8], in test [9], in test [10], in test [11] and in test [12] was more than 100 µM in each case. Moreover, the TGI in test [13], in test [14], in [15], in [16], in test [17] and in [18] was more than 100 µM throughout. This compound showed a TGI in [19] of more than 100 µM.
For `O=c1cc(O)c2ccccc2o1`, the TGI in test [1], in test [2], in [3], in test [4], in test [5] and in test [6] was more than 100 µM throughout. For the same compound, the TGI in test [7], in test [8], in test [9], in test [10], in [11] and in [12] was more than 100 µM each time. In addition, the TGI in test [13], in test [14], in [15], in test [16], in [17] and in test [18] was more than 100 µM in each case. In test [19], this compound yielded a TGI of more than 100 µM.
As for `Cc1c2cccc-2ccc2c1[nH]c1ccc(Br)cc12`, the TGI in test [1] is 11.8 µM; in test [2], 27.9 µM; in test [3] it was 27.1 µM; in test [4] it was 4.33 µM; in test [5], 24.9 µM; in test [6], 16.7 µM. Besides, the TGI in [7] stood at 9.94 µM; in test [8] it was 18.8 µM; in test [9], 18.8 µM; in [10], 6.29 µM; in test [11], 22.4 µM; in [12], 17.2 µM. The TGI came to 20.7 µM in test [13]; 32.2 µM in [14]; 25.2 µM in [15]; 13.4 µM in [16]; 24 µM in test [17]; 14.2 µM in test [18]. The same compound had a TGI in test [19] of 24.4 µM.
Turning to `COc1ccccc1N1C(=O)CS(=O)(=O)C1c1cccc(Oc2ccccc2)c1` (stereo unspecified), the TGI in test [1] amounted to 19.1 µM; in test [2], 44.1 µM; in test [3], 25.3 µM; in test [4], 34.4 µM; in test [5], 64.3 µM; in test [6], 22.2 µM. Moreover, the TGI was determined as 24.7 µM in test [7]; 16.5 µM in [8]; 30.7 µM in [9]; 29.3 µM in test [10]; 37.3 µM in test [11]; 33.1 µM in test [12]. The TGI is 31.8 µM in test [13]; 33.8 µM in test [14]; 82.8 µM in test [15]; 28.9 µM in test [16]; 36.7 µM in [17]; 27.2 µM in test [18]. The compound also had a TGI in test [19] of 33.7 µM.
Take `COc1ccc2c(c1)CCCN1Cc3cc(OC)c(OC)cc3CC21` (stereo unspecified): the TGI in test [1], in [2], in test [3], in test [4], in test [5] and in test [6] was more than 100 µM each time. In addition, the TGI in test [7], in test [8], in [9], in [10], in test [11] and in test [12] was more than 100 µM each time. Further, the TGI in test [13], in [14], in test [15], in [16], in test [17] and in test [18] was more than 100 µM throughout. In [19], this compound gave a TGI of more than 100 µM.
For the compound `CC1(c2nc3ccccc3[nH]2)CCC(C(N)=O)C(C)(C)O1` (stereo unspecified), the TGI in [1], in test [2], in [3], in [4], in [5] and in [6] was more than 100 µM in each case. The TGI in test [7], in [8], in test [9], in test [10], in test [11] and in test [12] was more than 100 µM each time. Moreover, the TGI in test [13], in test [14], in test [15], in [16], in [17] and in [18] was more than 100 µM in each case. For the same compound, the TGI in [19] is more than 100 µM.
Consider `O=C1c2cscc2C(=O)C1(O)O`, for which the TGI in test [1] was more than 100 µM; in [2], more than 100 µM; in test [3], more than 100 µM; in test [4] it was 36.7 µM; in test [5], 83.7 µM; in test [6], 99.7 µM. The TGI in test [7] is more than 100 µM; in [8], more than 100 µM; in [9] it was more than 100 µM; in test [10], 40.3 µM; in [11], 45.9 µM; in [12] it was more than 100 µM. Also, the TGI in test [13] is 90.9 µM; in [14], more than 100 µM; in test [15], 42.1 µM; in [16], more than 100 µM; in [17] it was more than 100 µM; in test [18] it was more than 100 µM. This compound showed a TGI in [19] of more than 100 µM.
With `Cc1cc(S(=O)(=O)NC2=NC(c3ccccc3)c3ccccc3N2)c(S)cc1Cl` (stereo unspecified), the TGI in test [1], in test [2], in test [3], in test [4], in test [5] and in test [6] was more than 100 µM throughout. Also, the TGI in test [7], in test [8], in test [9], in test [10], in [11] and in test [12] was more than 100 µM throughout. The TGI in test [13] is more than 100 µM; in test [14] it was more than 100 µM; in [15], more than 100 µM; in [16] it was more than 100 µM; in test [17] it was more than 100 µM; in test [18] it was 80.9 µM. The compound further came in with a TGI in test [19] of more than 100 µM.
Take `COc1cc(S(=O)(=O)Nc2nc(-c3ccc(N)cc3)cs2)ccc1Cl`: the TGI in test [1], in test [2], in [3], in test [4], in test [5] and in [6] was more than 100 µM throughout. Also, the TGI in test [7], in test [8], in test [9], in [10], in [11] and in [12] was more than 100 µM each time. Further, the TGI in [13], in [14], in test [15], in test [16], in test [17] and in [18] was more than 100 µM throughout. In [19], this compound gave a TGI of more than 100 µM.
